Measured values reported in ChEMBL document CHEMBL3871307, “Discovery of Chromane Propionic Acid Analogues as Selective Agonists of GPR120 with in Vivo Activity in Rodents” (ACS Med Chem Lett, 2017).
Activity calls are given as the source filed them. No cut-off for these calls is given here.

Columns and labels:
[1] = Volume of distribution at steady state in rat plasma at 0.1 mg/kg administered as iv casette dose by LC/MS/MS analysis; format: ADME, organism-based; conditions: read-out: Vdss
[2] = Clearance in rat plasma at 1 mg/kg, iv or 2 mg/kg, po by LC/MS/MS analysis; format: ADME, organism-based
[3] = Protein binding in rhesus monkey plasma at 0.5 mg/kg, iv or 1 mg/kg, po by LC/MS/MS analysis; format: ADME, organism-based, Macaca mulatta; conditions: read-out: PPB (converted)
[4] = Intrinsic clearance in rat plasma at 0.1 mg/kg administered as iv casette dose by LC/MS/MS analysis; format: ADME, organism-based; conditions: in vivo
[5] = Intrinsic clearance in rat plasma at 1 mg/kg, iv or 2 mg/kg, po by LC/MS/MS analysis; format: ADME, organism-based; conditions: in vivo
[6] = Plasma concentration in C57BL/6 mouse oral glucose tolerance test at 3 mg/kg, po via gavage measured at 3 hrs
[7] = molecular target: T1, Peroxisome proliferator-activated receptor gamma (Homo sapiens) (UniProt P37231); assay: Activity at PPARgamma (unknown origin)
T1 sequence (whole entry): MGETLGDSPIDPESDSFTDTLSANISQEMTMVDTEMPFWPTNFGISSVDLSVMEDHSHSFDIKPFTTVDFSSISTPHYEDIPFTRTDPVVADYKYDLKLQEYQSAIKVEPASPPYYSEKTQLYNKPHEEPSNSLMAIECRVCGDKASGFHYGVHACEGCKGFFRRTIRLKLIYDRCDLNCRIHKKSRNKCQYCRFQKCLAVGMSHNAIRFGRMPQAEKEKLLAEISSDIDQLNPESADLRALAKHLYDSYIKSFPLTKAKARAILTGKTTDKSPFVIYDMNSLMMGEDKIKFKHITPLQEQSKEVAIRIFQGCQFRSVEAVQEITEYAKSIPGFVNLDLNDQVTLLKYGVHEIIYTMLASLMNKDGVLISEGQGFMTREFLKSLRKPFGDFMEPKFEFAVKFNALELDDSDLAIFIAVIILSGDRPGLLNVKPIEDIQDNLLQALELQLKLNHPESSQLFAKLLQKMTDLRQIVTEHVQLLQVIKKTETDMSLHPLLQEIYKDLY

[8] = Clearance in rhesus monkey plasma at 0.5 mg/kg, iv or 1 mg/kg, po by LC/MS/MS analysis; format: ADME, organism-based, Macaca mulatta
Mus musculus [9] = assay: Glucose lowering effect in C57BL/6 transverse aortic constriction mouse assessed as reduction in blood glucose at 3 to 30 mg/kg, po via gavage pretreated for 60 mins followed by dextrose challenge measured up to 120 mins post glucose challenge by OGTT; format: functional, organism-based
[10] = Terminal half life in rhesus monkey plasma at 0.5 mg/kg, iv or 1 mg/kg, po by LC/MS/MS analysis; format: ADME, organism-based, Macaca mulatta; conditions: read-out: beta t1/2 (converted)
[11] = Intrinsic clearance in rhesus monkey plasma at 0.5 mg/kg, iv or 1 mg/kg, po by LC/MS/MS analysis; format: ADME, organism-based, Macaca mulatta; conditions: in vivo
Mus musculus [12] = assay: In vivo agonist activity at GPR120 in wild type C57BL/6 transverse aortic constriction mouse assessed as glucose lowering effect at 150 mg/kg, po via gavage pretreated for 60 mins followed by dextrose challenge measured up to 120 mins post glucose challenge by OGTT; format: functional, organism-based
[13] = AUC in rhesus monkey plasma at 0.5 mg/kg, iv by LC/MS/MS analysis; format: ADME, organism-based, Macaca mulatta
Cytochrome P450 2C9 = Cytochrome P450 2C9 (Homo sapiens, UniProt P11712); assay: Inhibition of human CYP2C9; format: ADME
[14] = Plasma concentration in C57BL/6 transverse aortic constriction mouse at 30 mg/kg, po via gavage measured at 3 hrs; format: ADME, organism-based; conditions: C57BL/6, mouse
[15] = Intrinsic clearance in mouse plasma at 2 mg/kg, iv or 30 mg/kg, po by LC/MS/MS analysis; format: ADME, organism-based; conditions: in vivo
[16] = Volume of distribution at steady state in rhesus monkey plasma at 0.5 mg/kg, iv or 1 mg/kg, po by LC/MS/MS analysis; format: ADME, organism-based, Macaca mulatta; conditions: read-out: Vdss
[17] = AUC in rat plasma at 1 mg/kg, iv by LC/MS/MS analysis; format: ADME, organism-based
[18] = Mean residence time in rhesus monkey plasma at 0.5 mg/kg, iv or 1 mg/kg, po by LC/MS/MS analysis; format: ADME, organism-based, Macaca mulatta
[19] = Terminal half life in rat plasma at 1 mg/kg, iv or 2 mg/kg, po by LC/MS/MS analysis; format: ADME, organism-based; conditions: read-out: beta t1/2 (converted)
[20] = molecular target: T2, Peroxisome proliferator-activated receptor delta (Homo sapiens) (UniProt Q03181); assay: Activity at PPARdelta (unknown origin)
T2 sequence (whole entry): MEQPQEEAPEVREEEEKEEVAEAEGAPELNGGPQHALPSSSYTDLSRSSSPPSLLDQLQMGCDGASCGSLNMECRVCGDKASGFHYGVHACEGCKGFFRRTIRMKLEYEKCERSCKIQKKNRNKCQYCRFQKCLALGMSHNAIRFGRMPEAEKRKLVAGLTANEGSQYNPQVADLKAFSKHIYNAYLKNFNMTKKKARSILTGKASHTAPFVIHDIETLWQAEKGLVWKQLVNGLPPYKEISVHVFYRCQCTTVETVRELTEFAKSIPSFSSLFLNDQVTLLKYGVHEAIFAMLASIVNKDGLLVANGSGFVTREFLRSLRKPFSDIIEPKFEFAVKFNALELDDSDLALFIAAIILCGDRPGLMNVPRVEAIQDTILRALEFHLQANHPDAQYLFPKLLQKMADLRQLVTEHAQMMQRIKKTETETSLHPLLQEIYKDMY

[21] = molecular target: T3, Free fatty acid receptor 4 (Homo sapiens) (UniProt Q5NUL3); assay: Agonist activity at human GPR120 short isoform expressed in CHOK1 cells assessed as increase in IP1 accumulation at 10 uM after 60 mins by HTRF assay; format: functional, cell-based; conditions: CHO-K1
T3 sequence (whole entry): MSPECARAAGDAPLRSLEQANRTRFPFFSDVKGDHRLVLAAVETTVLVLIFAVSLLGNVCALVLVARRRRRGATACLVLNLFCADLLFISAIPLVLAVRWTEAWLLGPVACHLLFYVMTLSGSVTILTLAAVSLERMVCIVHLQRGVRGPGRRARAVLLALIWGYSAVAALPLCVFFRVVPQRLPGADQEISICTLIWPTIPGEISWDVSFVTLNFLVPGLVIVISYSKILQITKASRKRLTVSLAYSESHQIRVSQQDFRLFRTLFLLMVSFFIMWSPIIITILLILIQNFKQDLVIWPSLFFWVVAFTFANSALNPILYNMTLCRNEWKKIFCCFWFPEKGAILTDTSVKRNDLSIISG

Chain of Cytochrome P450 2C9 (P11712 whole entry): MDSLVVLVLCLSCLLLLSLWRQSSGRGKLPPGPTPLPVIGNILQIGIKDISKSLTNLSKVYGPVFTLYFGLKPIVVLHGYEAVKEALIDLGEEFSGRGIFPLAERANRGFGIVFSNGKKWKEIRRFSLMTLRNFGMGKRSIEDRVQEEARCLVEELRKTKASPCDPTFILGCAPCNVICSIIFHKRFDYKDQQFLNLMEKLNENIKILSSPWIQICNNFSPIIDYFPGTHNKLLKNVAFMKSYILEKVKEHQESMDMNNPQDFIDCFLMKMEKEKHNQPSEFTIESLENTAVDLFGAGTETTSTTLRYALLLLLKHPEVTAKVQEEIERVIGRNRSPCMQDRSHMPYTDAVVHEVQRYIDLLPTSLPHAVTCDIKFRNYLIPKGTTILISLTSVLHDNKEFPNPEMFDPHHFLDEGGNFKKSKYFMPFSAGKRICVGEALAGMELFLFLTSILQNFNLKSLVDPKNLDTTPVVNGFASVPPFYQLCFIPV

- Vd [1]: 0.24 L/kg
- clearance [2]: 1.1 mL/min/kg
- fraction unbound [3]: 0.0022
- CL [4]: 560 mL/min/kg
- CL [5]: 470 mL/min/kg
- Activity [7]: > 10 µM
- clearance [8]: 0.33 mL/min/kg
- half-life [10]: 9.8 h
- CL [11]: 150 mL/min/kg
- AUC [13]: 57.8 µM·h
- IC50 (Cytochrome P450 2C9): > 50 µM
- concentration at 3 h [14]: 3120 nM
- CL [15]: 3400 mL/min/kg
- Vd [16]: 0.27 L/kg
- AUC [17]: 35.9 µM·h
- MRT [18]: 13.5 h
- half-life [19]: 4.6 h
- Activity [20]: > 10 µM
- Activity [21]: > 50%
Structure (SMILES): CO[C@H]1C[C@H](Oc2cc(F)c(F)c(-c3ccc4c(c3)CC[C@H](CCC(=O)O)O4)n2)C1
- concentration at 3 h [6]: 750 nM
- Activity (Mus musculus [9]): Active
- Activity (Mus musculus [12]): Active
